Holding throughout (assay type): cell-based
The test system of one assay is MV-4-11. The assay can be described thus: Proliferation inhibition (CellTiter-Glo) in MV-4-11 cells. As to conditions: Homo sapiens, MV4-11, 96 h, MV-4-11 AML cells, homozygous FLT3-ITD, IC50 (4 days). The source says:
(§1) The Proliferation Inhibitory Effect was Investigated in Human AML Cell Lines MOLM-13 (AddexBio: C0003003) [REF: Pubmed: 9305600] and MV-4-11 (ATCC: CRL-9591) [REF PMID: 3496132], and CML cell line […] (ATCC: CRL-3343) [REF PMID: 163658]. Molm-13 is heterozygous for FLT3-ITD mutation, while MV4-11 is homozygous for FLT3-ITD [PMID: 12529668]. […] Cells were maintained in RPMI-1640 medium (ThermoFisher catalog no. 61870036) supplemented with 10% of Heat Inactivated FBS (ThermoFisher catalog no.A31605) and 1% Pen-Strep (Thermofisher catalog no. 10378016) and cultured at 37° C. in a humidified incubator with 5% CO2. Cell lines were […], and the cells were maintained in a range 70%-80% confluency.
(§2) ATP is present in all metabolically active cells and is considered as a marker for cell viability and proliferation. Metabolic cell activity was determined using the CellTiter-Glo kit (Promega catalog no. G7572), an ATP monitoring system based on the production of luminescence by the reaction of ATP with added UltraGlo® recombinant luciferase (Kawano et al., 2016, PLOS One, 8; 11(7):e0158888), according to the supplier's experimental recommendations. The assay was based on a 96 well plate format.
(§3) Test compounds were dissolved at 10 mM in DMSO (Sigma catalog no. D8418; purity 299.9%) and stored at −20° C. Eight concentrations of test compound were assessed in duplicate in an individual test occasion in parallel in the selected cell lines. Gilteratinib and FF-10101 were used as reference compounds and tested in duplicate at eight concentrations. 100% of proliferation is represented by the untreated cells (0.2% DMSO).
(§4) On the day of the experiment (TO), cells were quantified with the cell viability analyser NucleoCounter (Chemometec NC-200) and diluted with fresh medium to obtain the cell density of about 10,000 cells per 200 μL medium. 200 μL of cell suspension were added into wells in the 96 well plate.
(§5) After 2 hours from seeding cells, compounds were added using a D300e compound dispenser (Life Sciences Tecan D300) at desired concentrations with shaking between each compound dispensed. Cell plates containing 200 μL/well suspension were incubated at 37° C. in a humidified incubator with […].
(§6) […] Contents were mixed for 5 min on an orbital shaker to induce cell lysis, and then incubated at room temperature for an additional 10 min in the dark to stabilize the luminescent signal. Luminescence was read by using a GloMax GM300 plate reader (Promega) using the luminescence for 96 well plate standard protocol.
(§7) Results were analysed by GraphPad (Prism) and IC50 values were calculated by non-linear regression using four parameter-logistic equation.

The subject of the next assay is MOLM-13. The assay can be described thus: Proliferation inhibition (CellTiter-Glo) in MOLM-13 cells. The conditions noted are these: Homo sapiens, 96 h, MOLM-13 AML cells, heterozygous FLT3-ITD, IC50 (4 days).
Excerpt: as §1, §2, §3, §4, §5, §6, §7

The next assay has as its system K-562. Briefly: Proliferation inhibition (CellTiter-Glo) in K-562 cells. The conditions noted are these: Homo sapiens, K562, 96 h, K-562 CML cells, no FLT3 mutations, IC50 (4 days).
Excerpt: as §1, §2, §3, §4, §5, §6, §7

Molecules are shown by their SMILES.

`C=CC(=O)NCCCCOc1cccc(Nc2nc(NC3CCOCC3)c(CC)nc2C(N)=O)c1` [Compound 1, 3-((3-(4-Acrylamidobutoxy)phenyl)amino)-6-ethyl-5-((tetrahydro-2H-pyran-4-yl)amino)pyrazine-2-carboxamide]: the IC50 is 0.01 to 0.1 µM in the assay with MV-4-11, 0.1 to 0.5 µM with MOLM-13 and more than 0.5 µM in the assay with K-562.
As to `C=CS(=O)(=O)NCCCCOc1cccc(Nc2nc(NC3CCOCC3)c(CC)nc2C(N)=O)c1` [Compound 2, 6-Ethyl-5-((tetrahydro-2H-pyran-4-yl)amino)-3-((3-(4-(vinylsulfonamido)butoxy)phenyl)amino)pyrazine-2-carboxamide], the figures for the IC50 in the assay with MV-4-11, in the assay with MOLM-13 and with K-562 were 0.1 to 0.5 µM, 0.1 to 0.5 µM and more than 0.5 µM, respectively.
In the case of `C=CC(=O)NCCCOc1cccc(Nc2nc(NC3CCOCC3)c(CC)nc2C(N)=O)c1` [Compound 3, 3-((3-(3-Acrylamidopropoxy)phenyl)amino)-6-ethyl-5-((tetrahydro-2H-pyran-4-yl)amino)pyrazine-2-carboxamide], the IC50 in the assay on MV-4-11 is 0.1 to 0.5 µM; in the assay on MOLM-13 it was 0.1 to 0.5 µM; in the assay on K-562, more than 0.5 µM.
Regarding `C=CS(=O)(=O)NCCCOc1cccc(Nc2nc(NC3CCOCC3)c(CC)nc2C(N)=O)c1` [Compound 4, 6-Ethyl-5-((tetrahydro-2H-pyran-4-yl)amino)-3-((3-(3-(vinylsulfonamido)propoxy)phenyl)-amino)pyrazine-2-carboxamide], the IC50 with MV-4-11 was 0.1 to 0.5 µM; in the assay on MOLM-13, 0.1 to 0.5 µM; in the assay on K-562, more than 0.5 µM.
For `C#CC(=O)NCCCCOc1cccc(Nc2nc(NC3CCOCC3)c(CC)nc2C(N)=O)c1` [Compound 5, 6-Ethyl-3-((3-(4-propiolamidobutoxy)phenyl)amino)-5-((tetrahydro-2H-pyran-4-yl)amino)pyrazine-2-carboxamide], the results for the IC50 with MV-4-11, in the assay on MOLM-13 and in the assay on K-562 were 0.01 to 0.1 µM, 0.01 to 0.1 µM and more than 0.5 µM, respectively.
On to `CC#CC(=O)NCCCCOc1cccc(Nc2nc(NC3CCOCC3)c(CC)nc2C(N)=O)c1` [Compound 6, 3-((3-(4-(But-2-ynamido)butoxy)phenyl)amino)-6-ethyl-5-((tetrahydro-2H-pyran-4-yl)amino)pyrazine-2-carboxamide], for which the IC50 with MV-4-11 was 0.1 to 0.5 µM; in the assay with MOLM-13 it was 0.1 to 0.5 µM; in the assay with K-562, more than 0.5 µM.
Take `C#CC(=O)NCCCOc1cccc(Nc2nc(NC3CCOCC3)c(CC)nc2C(N)=O)c1` [Compound 7, 6-Ethyl-3-((3-(3-propiolamidopropoxy)phenyl)amino)-5-((tetrahydro-2H-pyran-4-yl)amino)pyrazine-2-carboxamide]: the IC50 in the assay with MV-4-11 fell in the range of 0.01 to 0.1 µM; with MOLM-13 it was 0.001 to 0.01 µM; with K-562 it was 0.1 to 0.5 µM.
For `CC#CC(=O)NCCCOc1cccc(Nc2nc(NC3CCOCC3)c(CC)nc2C(N)=O)c1` [Compound 8, 3-((3-(3-(But-2-ynamido)propoxy)phenyl)amino)-6-ethyl-5-((tetrahydro-2H-pyran-4-yl)amino)pyrazine-2-carboxamide] the same measures were more than 0.5 µM, 0.1 to 0.5 µM and more than 0.5 µM.
The matching figures for `C=CC(=O)NCC#Cc1cccc(Nc2nc(NC3CCOCC3)c(CC)nc2C(N)=O)c1` [Compound 9, 3-((3-(3-Acrylamidoprop-1-yn-1-yl)phenyl)amino)-6-ethyl-5-((tetrahydro-2H-pyran-4-yl)amino)pyrazine-2-carboxamide]: 0.01 to 0.1 µM, 0.01 to 0.1 µM and more than 0.5 µM.
For `C=CS(=O)(=O)NCC#Cc1cccc(Nc2nc(NC3CCOCC3)c(CC)nc2C(N)=O)c1` [Compound 10, 6-Ethyl-5-((tetrahydro-2H-pyran-4-yl)amino)-3-((3-(3-(vinylsulfonamido)prop-1-yn-1-yl)phenyl)amino)pyrazine-2-carboxamide] the same measures were 0.1 to 0.5 µM, 0.1 to 0.5 µM and more than 0.5 µM.
Take `C=CC(=O)NCCC#Cc1cccc(Nc2nc(NC3CCOCC3)c(CC)nc2C(N)=O)c1` [Compound 11, 3-((3-(4-Acrylamidobut-1-yn-1-yl)phenyl)amino)-6-ethyl-5-((tetrahydro-2H-pyran-4-yl)amino)pyrazine-2-carboxamide]: the IC50 with MV-4-11 was 0.01 to 0.1 µM; in the assay with MOLM-13, 0.01 to 0.1 µM; in the assay on K-562, more than 0.5 µM.
Take `C=CS(=O)(=O)NCCC#Cc1cccc(Nc2nc(NC3CCOCC3)c(CC)nc2C(N)=O)c1` [Compound 12, 6-ethyl-5-((Tetrahydro-2H-pyran-4-yl)amino)-3-((3-(4-(vinylsulfonamido)but-1-yn-1-yl)phenyl)amino)pyrazine-2-carboxamide]: the IC50 with MV-4-11 was 0.1 to 0.5 µM; in the assay with MOLM-13 it was more than 0.5 µM; with K-562, more than 0.5 µM.
Regarding `C#CC(=O)NCC#Cc1cccc(Nc2nc(NC3CCOCC3)c(CC)nc2C(N)=O)c1` [Compound 13, 6-Ethyl-3-((3-(3-propiolamidoprop-1-yn-1-yl)phenyl)amino)-5-((tetrahydro-2H-pyran-4-yl)amino)pyrazine-2-carboxamide], the IC50 in the assay with MV-4-11 lay in the range of 0.01 to 0.1 µM; in the assay with MOLM-13, 0.01 to 0.1 µM; in the assay on K-562, 0.1 to 0.5 µM.
Regarding `CC#CC(=O)NCC#Cc1cccc(Nc2nc(NC3CCOCC3)c(CC)nc2C(N)=O)c1` [Compound 14, 3-((3-(3-(But-2-ynamido)prop-1-yn-1-yl)phenyl)amino)-6-ethyl-5-((tetrahydro-2H-pyran-4-yl)amino)pyrazine-2-carboxamide], the IC50 in the assay on MV-4-11 was 0.01 to 0.1 µM; with MOLM-13 it was 0.01 to 0.1 µM; in the assay on K-562 it was more than 0.5 µM.
For the compound `C#CC(=O)NCCC#Cc1cccc(Nc2nc(NC3CCOCC3)c(CC)nc2C(N)=O)c1` [Compound 15, 6-Ethyl-3-((3-(4-propiolamidobut-1-yn-1-yl)phenyl)amino)-5-((tetrahydro-2H-pyran-4-yl)amino)pyrazine-2-carboxamide], the IC50 with MV-4-11 is 0.01 to 0.1 µM; in the assay on MOLM-13, 0.01 to 0.1 µM; with K-562, more than 0.5 µM.
For `CC#CC(=O)NCCC#Cc1cccc(Nc2nc(NC3CCOCC3)c(CC)nc2C(N)=O)c1` [Compound 16, 3-((3-(4-(But-2-ynamido)but-1-yn-1-yl)phenyl)amino)-6-ethyl-5-((tetrahydro-2H-pyran-4-yl)amino)pyrazine-2-carboxamide], the values for the IC50 with MV-4-11, with MOLM-13 and in the assay on K-562 were 0.1 to 0.5 µM, 0.1 to 0.5 µM and more than 0.5 µM, respectively.
For `C=CC(=O)N(C)[C@@H](C)C(=O)NCC#Cc1cccc(Nc2nc(NC3CCOCC3)c(CC)nc2C(N)=O)c1` [Compound 17, (S)-6-Ethyl-3-((3-(3-(2-(N-methylacrylamido)propanamido)prop-1-yn-1-yl)phenyl)amino)-5-((tetrahydro-2H-pyran-4-yl)amino)pyrazine-2-carboxamide], the IC50 was less than 0.001 µM in the assay with MV-4-11, 0.001 to 0.01 µM in the assay with MOLM-13 and more than 0.5 µM in the assay with K-562.
`CCc1nc(C(N)=O)c(Nc2cncc(CCNC(=O)[C@H](C)N(C)C(=O)/C=C/CN(C)C)c2)nc1C1CC1` [Compound 306, (S,E)-5-cyclopropyl-3-((5-(2-(2-(4-(dimethylamino)-N-methylbut-2-enamido)propanamido)ethyl)pyridin-3-yl)amino)-6-ethylpyrazine-2-carboxamide]: the concentration for half-maximal inhibition (IC50) in the assay with K-562 was more than 0.5 µM.
On the same count and under the same terms, for `CCc1nc(C(N)=O)c(Nc2cccc(CCNC(=O)[C@H](C)N(C)C(=O)/C=C/CNC)c2)nc1N(C)C(C)C` [Compound 307, (S,E)-6-ethyl-5-(isopropyl(methyl)amino)-3-((3-(2-(2-(N-methyl-4-(methylamino)but-2-enamido)propanamido)ethyl)phenyl)amino)pyrazine-2-carboxamide] the value was more than 0.5 µM; for `Cc1cc(C(N)=O)c(Nc2cncc(CCNC(=O)[C@H](C)N(C)C(=O)/C=C/CN(C)C)c2)nc1C1CC1` [Compound 323, (S,E)-6-cyclopropyl-2-((5-(2-(2-(4-(dimethylamino)-N-methylbut-2 enamido)propanamido)ethyl)pyridin-3-yl)amino)-5-methylnicotinamide], more than 0.5 µM.
